Measured values as given in patent publication US9156796B2, “Benzoimidazole-carboxylic acid amide derivatives as APJ receptor modulators” (SANOFI, priority 2013, dated 2015).

Each compound was assayed against T1, human apelin receptor (Homo sapiens, UniProt P35414) (assay: Determination of agonism on the human apelin receptor by a calcium fluorescence assay (FLIPR)). Settings: HEK293 cells stably transfected with human apelin receptor and Giaq protein, Fluo-4 calcium fluorescence, read-out: EC50 (APJ agonism).
T1 construct: expressed in transfected cells
T1 sequence (P35414 1-380): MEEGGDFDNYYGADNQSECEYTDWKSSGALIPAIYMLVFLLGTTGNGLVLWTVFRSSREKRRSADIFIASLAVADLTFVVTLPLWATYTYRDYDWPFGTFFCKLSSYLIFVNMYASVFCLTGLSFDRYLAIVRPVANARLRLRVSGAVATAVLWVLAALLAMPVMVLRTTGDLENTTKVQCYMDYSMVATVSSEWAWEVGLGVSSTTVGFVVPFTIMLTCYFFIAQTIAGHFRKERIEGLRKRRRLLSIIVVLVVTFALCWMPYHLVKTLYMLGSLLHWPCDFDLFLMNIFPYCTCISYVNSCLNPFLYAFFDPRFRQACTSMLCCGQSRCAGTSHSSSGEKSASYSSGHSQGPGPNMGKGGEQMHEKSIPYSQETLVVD
Type: cell-based
Description: Determination of Agonism on the Human Apelin Receptor by a Calcium Fluorescence Assay (FLIPR)
The assay is based on the detection of intracellular calcium changes detected by the selective, calcium-chelating dye Fluo-4 (Molecular Probes). A large fluorescence intensity increase is observed upon calcium association with Fluo-4. The dye is delivered to the cell interior using an acetoxymethylester form of Fluo-4, where the intracellular esterase activity results in the charged species being released and trapped within the cytoplasm of the cell. […] By co-expressing the human apelin receptor and a promiscuous Giaq protein, agonism of the apelin receptor couples to phospholipase-C resulting in intracellular calcium mobilization.
The HEK293 cells were stably transfected with the human apelin receptor and the Giaq protein. Cells were selected and maintained in a log phase of growth at 37° and 5% CO2 in the Iscove's minimal essential medium, 10% fetal calf serum, 1× Penicillin-Streptomycin, 400 μg/mL G418. One day prior the assay, cells were passaged by accutase and plated at a density of 50,000 cells/well onto a 96-well plates with black border but clear bottom (Costar, cat#3904) in a final volume of 200 μl growth medium.
In order to load the cells the next day with the calcium-sensitive dye, growth medium was carefully replaced by dye solution (100 μl/well) containing Fluo-4 (4 μM) in basic measurement buffer (135 mM NaCl, 5 mM KCl, 1 mM magnesium sulphate, 5 mM glucose, 20 mM Hepes, 2.5 mM probenecid; adjusted to pH 7.4). Cells were incubated for 1 h at 37° C., and then washed 3× with buffer containing no dye. The washer was programmed to leave a remaining volume of 150 μl after the third wash in the plate.
During the dye-loading of the cells, a serial compound dilution was performed in a separate 96-well plate with overall 4× increased concentrations. Small aliquots of DMSO stock solutions of the compounds (10 mM in 100% DMSO were aliquoted into 150 μl buffer in the first rows of the 96-well plates, and then serially diluted by a factor of 1:3 transferring each time 30 μl to the next rows already containing 60 μl buffer. All compounds were tested in a least 7 concentrations, each condition was performed in triplicates. As comparator, we used freshly prepared apelin-13 solutions, for which also a concentration-response curve was determined at each measurement day. The compound plate was incubated for 10 min after the final dilutions steps at 37° C. before transferring the dye-loaded cell plate and the compound plate into a FLIPR Tetra reader (Molecular Devices). Measurement within this reader started by pipetting the agonist solution (50 μl) on the cell plate. Overall perform 60 reads were performed with an interval of 2 sec. The maximum of the fluorescence transient was used to calculate the agonistic response of the cells. In order to normalize this response, which may vary from plate to plate we set the maximum fluorescence achieved by 1 μM apelin-13 on this plate as 100%.
EC-50 values for apelin-13 and the apelin receptor compounds described in this patent were determined by standard algorithms using a specific software package.

Row | Compound | EC50
1 | CCC(CC)n1c(CC2CCCCC2)nc2cc(C(=O)N[C@@H](CC3CCCCC3)C(=O)O)ccc21 [Example 141, (S)-3-Cyclohexyl-2-{[2-cyclohexylmethyl-1-(1-ethyl-propyl)-1H-benzoimidazole-5-carbonyl]-amino}-propionic acid] | 23000 nM
2 | CCC(CC)n1c(Cc2cccs2)nc2cc(C(=O)N[C@H](Cc3nnn[nH]3)CC(C)C)ccc21 [Example 472, 1-(1-Ethyl-propyl)-2-thiophen-2-ylmethyl-1H-benzoimidazole-5-carboxylic acid [(S)-3-methyl-1-(1H-tetrazol-5-ylmethyl)-butyl]-amide] | 38 nM
3 | CCC(CC)n1c(CC2CCCC2)nc2cc(C(=O)NC(CC(C)C)C(N)=O)ccc21 (centres unmarked) [Example 169, 2-Cyclopentylmethyl-1-(1-ethyl-propyl)-1H-benzoimidazole-5-carboxylic acid (1-carbamoyl-3-methyl-butyl)-amide] | 6650 nM
4 | CCC(CC)n1c(Cc2cccs2)nc2cc(C(=O)N[C@@H](CC(C)C)C(=O)NCC3CCCN4CCCCC34)ccc21 (stereo partly drawn) [Example 275, 1-(1-Ethyl-propyl)-2-thiophen-2-ylmethyl-1H-benzoimidazole-5-carboxylic acid {(S)-3-methyl-1-[(octahydro-quinolizin-1-ylmethyl)-carbamoyl]-butyl}-amide] | 242 nM
5 | CCC(CC)n1c(Cc2cccs2)nc2cc(C(=O)N[C@@H](CC(C)C)C(=O)NCCCN(C)C)ccc21 [Example 224, 1-(1-Ethyl-propyl)-2-thiophen-2-ylmethyl-1H-benzoimidazole-5-carboxylic acid [(S)-1-(3-dimethylamino-propylcarbamoyl)-3-methyl-butyl]-amide] | 300 nM
6 | CCC(CC)n1c(Cc2cccs2)nc2cc(C(=O)N[C@@H](CC(C)C)C(=O)NCCc3nnn[nH]3)ccc21 [Example 400, 1-(1-Ethyl-propyl)-2-thiophen-2-ylmethyl-1H-benzoimidazole-5-carboxylic acid {(S)-3-methyl-1-[2-(1H-tetrazol-5-yl)-ethylcarbamoyl]-butyl}-amide] | 70 nM
7 | CC(C)C[C@H](NC(=O)c1ccc2c(c1)nc(Cc1cccs1)n2C(C(C)C)C(C)C)C(=O)O [Example 164, (S)-2-{[1-(1-Isopropyl-2-methyl-propyl)-2-thiophen-2-ylmethyl-1H-benzoimidazole-5-carbonyl]-amino}-4-methyl-pentanoic acid] | 6350 nM
8 | CCC(CC)n1c(Cc2cccs2)nc2cc(C(=O)N[C@@H](CC(C)C)[C@H](O)C(=O)O)ccc21 [Example 68, (2S,3S)-3-{[1-(1-Ethyl-propyl)-2-thiophen-2-ylmethyl-1H-benzoimidazole-5-carbonyl]-amino}-2-hydroxy-5-methyl-hexanoic acid] | 18 nM
9 | CCC(CC)n1c(Cc2cccs2)nc2cc(C(=O)N[C@@H](CC(C)C)C(=O)NCCCCN(C)C)ccc21 [Example 245, 1-(1-Ethyl-propyl)-2-thiophen-2-ylmethyl-1H-benzoimidazole-5-carboxylic acid [(S)-1-(4-dimethylamino-butylcarbamoyl)-3-methyl-butyl]-amide] | 291 nM
10 | CCC(CC)n1c(Cc2cccs2)nc2cc(C(=O)N[C@@H](CC(C)C)C(=O)N(CCOC)CCOC)ccc21 [Example 363, 1-(1-Ethyl-propyl)-2-thiophen-2-ylmethyl-1H-benzoimidazole-5-carboxylic acid {(S)-1-[bis-(2-methoxy-ethyl)-carbamoyl]-3-methyl-butyl}-amide] | 1720 nM
11 | C[C@@H]1CCCC[C@H]1n1c(Cc2cccs2)nc2cc(C(=O)NC3(C(=O)O)CCCCC3)ccc21 [Example 38, 1-{[1-((1R,2R)-2-Methyl-cyclohexyl)-2-thiophen-2-ylmethyl-1H-benzoimidazole-5-carbonyl]-amino}-cyclohexanecarboxylic acid] | 115 nM
12 | CCC(CC)n1c(CC2CCCC2)nc2cc(C(=O)N[C@H](CO)CC3CCCCC3)ccc21 [Example 167, 2-Cyclopentylmethyl-1-(1-ethyl-propyl)-1H-benzoimidazole-5-carboxylic acid ((S)-1-cyclohexylmethyl-2-hydroxy-ethyl)-amide] | 7550 nM
13 | CCC(CC)n1c(Cc2cccs2)nc2cc(C(=O)N[C@@H](CC(C)C)C(=O)N3CC4CC3CN4Cc3ccc(OC)cc3)ccc21 (stereo partly drawn) [Example 351, 1-(1-Ethyl-propyl)-2-thiophen-2-ylmethyl-1H-benzoimidazole-5-carboxylic acid {(S)-1-[5-(4-methoxy-benzyl)-2,5-diaza-bicyclo[2.2.1]heptane-2-carbonyl]-3-methyl-butyl}-amide] | 9290 nM
14 | CCC(CC)n1c(Cc2cccs2)nc2cc(C(=O)N[C@@H](CC(C)C)C(=O)NCCCSC)ccc21 [Example 248, 1-(1-Ethyl-propyl)-2-thiophen-2-ylmethyl-1H-benzoimidazole-5-carboxylic acid [(S)-3-methyl-1-(3-methylsulfanyl-propylcarbamoyl)-butyl]-amide] | 1800 nM
15 | CCC(CC)n1c(Cc2cccs2)nc2cc(C(=O)N[C@@H](CC(C)C)C(=O)NCC(C)(C)OC)ccc21 [Example 394, 1-(1-Ethyl-propyl)-2-thiophen-2-ylmethyl-1H-benzoimidazole-5-carboxylic acid [(S)-1-(2-methoxy-2-methyl-propylcarbamoyl)-3-methyl-butyl]-amide] | 2330 nM
16 | CCC(CC)n1c(Cc2cccs2)nc2cc(C(=O)N[C@@H](CC(C)C)CS(=O)(=O)c3nnc[nH]3)ccc21 [Example 484, 1-(1-Ethyl-propyl)-2-thiophen-2-ylmethyl-1H-benzoimidazole-5-carboxylic acid [(S)-3-methyl-1-(4H-[1,2,4]triazole-3-sulfonylmethyl)-butyl]-amide] | 14 nM
17 | CCC(CC)n1c(Cc2cccs2)nc2cc(C(=O)N[C@H](C(=O)O)[C@H](C)CC)ccc21 [Example 153, (2S,3R)-2-{[1-(1-Ethyl-propyl)-2-thiophen-2-ylmethyl-1H-benzoimidazole-5-carbonyl]-amino}-3-methyl-pentanoic acid] | 350 nM
18 | CCC(CC)n1c(Cc2cccs2)nc2cc(C(=O)N[C@@H](CC(C)C)C(=O)N(C)CCCC3CCCO3)ccc21 (stereo partly drawn) [Example 392, 1-(1-Ethyl-propyl)-2-thiophen-2-ylmethyl-1H-benzoimidazole-5-carboxylic acid ((S)-3-methyl-1-{methyl-[3-(tetrahydro-furan-2-yl)-propyl]-carbamoyl}-butyl)-amide] | 1380 nM
19 | CCCC(NC(=O)c1ccc2c(c1)nc(Cc1cccs1)n2C(CC)CC)C(C)(C)C(=O)O (single isomer, unassigned) [Example 467] | 265 nM
20 | CCC(CC)n1c(Cc2cccs2)nc2cc(C(=O)N[C@@H](CC(C)C)C(=O)NC3COC4(CCCC4)C3)ccc21 (stereo partly drawn) [Example 398, 1-(1-Ethyl-propyl)-2-thiophen-2-ylmethyl-1H-benzoimidazole-5-carboxylic acid [(S)-3-methyl-1-(1-oxa-spiro[4.4]non-3-ylcarbamoyl)-butyl]-amide] | 5460 nM
21 | CCC(CC)n1c(Cc2cccs2)nc2cc(C(=O)NC(CC(C)C)c3nccs3)ccc21 (centres unmarked) [Example 479, 1-(1-Ethyl-propyl)-2-thiophen-2-ylmethyl-1H-benzoimidazole-5-carboxylic acid (3-methyl-1-thiazol-2-yl-butyl)-amide] | 16900 nM
22 | CCCN(CCC)C1CCN(C(=O)[C@H](CC(C)C)NC(=O)c2ccc3c(c2)nc(Cc2cccs2)n3C(CC)CC)CC1 [Example 284, 1-(1-Ethyl-propyl)-2-thiophen-2-ylmethyl-1H-benzoimidazole-5-carboxylic acid [(S)-1-(4-dipropylamino-piperidine-1-carbonyl)-3-methyl-butyl]-amide] | 252 nM
23 | CCCC(NC(=O)c1ccc2c(c1)nc(Cc1cccs1)n2C(CC)CC)C(C)(C)C(=O)O (single isomer, unassigned) [Example 466] | 4720 nM
